Results reported in PubChem BioAssay AID1963426 (Molecular Pharmacology Branch, DTP, NCI, 2024).
pIC50: −log10 of the molar value.

Test system: 186277-243-T-J2-PDC complex spheroid growth, % test/control
Assay: Anticancer human tumor 186277-243-T-J2-PDC patient-derived colon adenocarcinoma cell line growth inhibition [Asc]
Details: for pIC50: curve of first compound; for viability, T/C: stronger effect = lower value
In short: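 Spheroid model: tumor line + HUVEC + hMSC. Single agents and combinations; top conc. at/near clinical Cmax (10 microM if undetermined), half-log dilutions. DMSO stocks at 800-fold test concentration.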

[1] = second compound 0.01 µM, first compound 0.0316 µM
[2] = second compound 0.01 µM, first compound 0.1 µM
[3] = second compound 0.01 µM, first compound 0.316 µM
[4] = second compound 0.01 µM, first compound 1 µM
[5] = second compound 0.0316 µM, first compound 0.0316 µM
[6] = second compound 0.0316 µM, first compound 0.1 µM
[7] = second compound 0.0316 µM, first compound 0.316 µM
[8] = second compound 0.0316 µM, first compound 1 µM
[9] = second compound 0.1 µM, first compound 0.0316 µM
[10] = second compound 0.1 µM, first compound 0.1 µM
[11] = second compound 0.1 µM, first compound 0.316 µM
[12] = second compound 0.1 µM, first compound 1 µM
[13] = second compound 0.316 µM, first compound 0.0316 µM
[14] = second compound 0.316 µM, first compound 0.1 µM
[15] = second compound 0.316 µM, first compound 0.316 µM
[16] = second compound 0.316 µM, first compound 1 µM
[17] = second compound 1 µM, first compound 0.0316 µM
[18] = second compound 1 µM, first compound 0.1 µM
[19] = second compound 1 µM, first compound 0.316 µM
[20] = second compound 1 µM, first compound 1 µM
[21] = second compound 0.01 µM, first compound 0.00316 µM
[22] = second compound 0.01 µM, first compound 0.01 µM
[23] = second compound 0.0316 µM, first compound 0.00316 µM
[24] = second compound 0.0316 µM, first compound 0.01 µM
[25] = second compound 0.1 µM, first compound 0.00316 µM
[26] = second compound 0.1 µM, first compound 0.01 µM
[27] = second compound 0.316 µM, first compound 0.00316 µM
[28] = second compound 0.316 µM, first compound 0.01 µM
[29] = second compound 1 µM, first compound 0.00316 µM
[30] = second compound 1 µM, first compound 0.01 µM
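Note: spheroids exposed to agents for 7 days.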
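Throughout, for viability, T/C: 100% = DMSO vehicle control wells.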

Row | Structure (SMILES) | pIC50 (second compound 0.01 µM) | pIC50 (second compound 0.0316 µM) | pIC50 (second compound 0.1 µM) | pIC50 (second compound 0.316 µM) | pIC50 (second compound 1 µM) | viability, T/C [1] [%] | viability, T/C [2] [%] | viability, T/C [3] [%] | viability, T/C [4] [%] | viability, T/C [5] [%] | viability, T/C [6] [%] | viability, T/C [7] [%] | viability, T/C [8] [%] | viability, T/C [9] [%] | viability, T/C [10] [%] | viability, T/C [11] [%] | viability, T/C [13] [%] | viability, T/C [14] [%] | viability, T/C [17] [%] | viability, T/C [18] [%] | also measured
1 | C=CC(=O)N1CCN(c2nc(=O)n(-c3c(C)ccnc3C(C)C)c3nc(-c4c(O)cccc4F)c(F)cc23)C(C)C1 (stereo not given) + CNC(C)C(=O)NC1CN(S(=O)(=O)c2cccc(S(=O)(=O)N3CCC4CCC(C(=O)NC(c5ccccc5)c5ccccc5)N4C(=O)C(NC(=O)C(C)NC)C3)c2)CCC2CCC(C(=O)NC(c3ccccc3)c3ccccc3)N2C1=O | < 5.00 | < 5.00 | < 5.00 | < 5.00 | < 5.00 | 102 | 114 | 117 | 100 | 118 | 104 | 122 | 116 | 124 | 108 | 124 | 124 | 118 | 112 | 124 | viability, T/C (second compound 0.01 µM, first compound 3.16 µM): 112%; viability, T/C (second compound 0.01 µM, first compound 10 µM): 104%; viability, T/C (second compound 0.0316 µM, first compound 3.16 µM): 100%; viability, T/C (second compound 0.0316 µM, first compound 10 µM): 108%; viability, T/C [12]: 114%; viability, T/C (second compound 0.1 µM, first compound 3.16 µM): 122%; viability, T/C (second compound 0.1 µM, first compound 10 µM): 113%; viability, T/C [15]: 120%; viability, T/C [16]: 130%; viability, T/C (second compound 0.316 µM, first compound 3.16 µM): 112%; viability, T/C (second compound 0.316 µM, first compound 10 µM): 110%; viability, T/C [19]: 109%; viability, T/C [20]: 106%; viability, T/C (second compound 1 µM, first compound 3.16 µM): 127%; viability, T/C (second compound 1 µM, first compound 10 µM): 118%
2 | COc1c(OCCCN2CCOCC2)ccc2c3n(c(=NC(=O)c4cnc(N)nc4)nc12)CCN3 + CNC(C)C(=O)NC1CN(S(=O)(=O)c2cccc(S(=O)(=O)N3CCC4CCC(C(=O)NC(c5ccccc5)c5ccccc5)N4C(=O)C(NC(=O)C(C)NC)C3)c2)CCC2CCC(C(=O)NC(c3ccccc3)c3ccccc3)N2C1=O | 7.14 | 7.01 | 7.09 | 7.06 | 7.07 | 62.4 | 47.4 | 25.2 | 19.6 | 77.7 | 54.3 | 24.9 | 19.1 | 68.3 | 50.9 | 25.1 | 74.9 | 48.5 | 75.2 | 48.2 | viability, T/C [21]: 98.5%; viability, T/C [22]: 105%; viability, T/C [23]: 99.3%; viability, T/C [24]: 128%; viability, T/C [25]: 114%; viability, T/C [26]: 120%; viability, T/C [12]: 18.1%; viability, T/C [27]: 108%; viability, T/C [28]: 113%; viability, T/C [15]: 25.6%; viability, T/C [16]: 18.5%; viability, T/C [29]: 108%; viability, T/C [30]: 104%; viability, T/C [19]: 21.3%; viability, T/C [20]: 17.7%
3 | NC1CCC(NC2CC2c2ccccc2)CC1 (stereo not given) + CNC(C)C(=O)NC1CN(S(=O)(=O)c2cccc(S(=O)(=O)N3CCC4CCC(C(=O)NC(c5ccccc5)c5ccccc5)N4C(=O)C(NC(=O)C(C)NC)C3)c2)CCC2CCC(C(=O)NC(c3ccccc3)c3ccccc3)N2C1=O | < 7.00 | < 7.00 | < 7.00 | < 7.00 | < 7.00 | 109 | 106 |  |  | 102 | 91.7 |  |  | 121 | 109 |  | 111 | 125 | 123 | 121 | viability, T/C (second compound 0.01 µM, first compound 0.000316 µM): 116%; viability, T/C (second compound 0.01 µM, first compound 0.001 µM): 105%; viability, T/C [21]: 109%; viability, T/C [22]: 101%; viability, T/C (second compound 0.0316 µM, first compound 0.000316 µM): 117%; viability, T/C (second compound 0.0316 µM, first compound 0.001 µM): 120%; viability, T/C [23]: 111%; viability, T/C [24]: 114%; viability, T/C (second compound 0.1 µM, first compound 0.000316 µM): 107%; viability, T/C (second compound 0.1 µM, first compound 0.001 µM): 115%; viability, T/C [25]: 121%; viability, T/C [26]: 111%; viability, T/C (second compound 0.316 µM, first compound 0.000316 µM): 121%; viability, T/C (second compound 0.316 µM, first compound 0.001 µM): 144%; viability, T/C [27]: 115%; viability, T/C [28]: 106%; viability, T/C (second compound 1 µM, first compound 0.000316 µM): 109%; viability, T/C (second compound 1 µM, first compound 0.001 µM): 119%; viability, T/C [29]: 125%; viability, T/C [30]: 109%
